Source: patent US7582602B2, “Hirulog-like peptide and gene therapy” (priority 2000, dated 2009)
Entries after “also recorded” stand apart in the source; their conditions may differ.

Key:
[1] = Haemorrhage, toxicity, liver and kidney function in rats; format: in vivo
[2] = Induction of antibodies in rabbits; conditions: rabbit, in vivo
Description: Relationship between HLP concentrations and vascular response. The relationship between plasma concentrations and the anti-restenosis effect of HLP is analysed. Polyclonal antibodies against HLP-KLH conjugate were raised in rabbits by the applicants group. The antibodies specifically recognize HLP in plasma proteins using Western blotting analysis. A competitive immunoassay was developed to measure plasma levels of HLP. Relationship between the effect of HLP on restenosis and its blood concentrations is analysed, which helps evaluate the efficacy of HLP and the design of a proper regimen for HLP treatment to prevent restenosis.
Effect of HLP on immune reactions. Since HLP is a peptide, it potentially induces immune reactions. HLP is a weak antigen. […] The possibility of HLP induces immune reactions in rabbits has not been excluded. Blood is withdrawn four weeks or six months after angioplasty and treatment with HLP, its analogues or saline, and determine the levels of serum C-reactive protein (Clinical Chemistry). Antibodies against HLP in blood are detected by immunodiffusion. Allergic reaction to HLP is monitored during and after the treatment.

[3] = target: T1, α-thrombin (Homo sapiens, UniProt P00734); test: Inhibition of enzymatic activity of thrombin (spectrozyme substrate); format: biochemical; conditions: spectrozyme as substrate, relative to hirulog-1
T1 construct: using α-thrombin and spectrozyme (American Diagnostica Inc., Greenwich, Conn.) as a substrate for thrombin
Description: HLP keeps the sequence of the active sites of hirulog-1. The amino-terminal tail of HLP contains a region which is homology to a distal portion of the extracellular domain of the thrombin receptor. This region of HLP is structurally distinct from hirulog-19-20 (or HLP20-31) which aims the anion binding exosite of thrombin (Carmeliet P et al, 1997). HLP provides double-site of inhibition on the binding of thrombin to the thrombin receptor, which can more effectively reduce the activation of the […] and the cellular effects of thrombin. In addition, the amino-terminal sequence of HLP can affect the interaction of the inhibitor with the active site of thrombin in a manner different from hirulog-1. This structural difference between HLP and hirulog-1 on their amino terminal can partially explain the lower inhibition of HLP on coagulation. The amino terminal of HLP can be slowly cleaved by thrombin after the formation of complex with thrombin as hirulog-1 (Buchanan M R et al, 1999), which prevents the complete consumption of thrombin.

[4] = Activated partial thromboplastin time (aPTT) in rats; format: in vivo; conditions: for aPTT (second): mean±SD, n=4
Description: Quantitative thrombin time (QTT) and activated partial thromboplastin time (aPTT): Plasma levels of hirulog-1 were estimated using QTT as previously described (Safian R D et al, 1990). Synthesized hirulog-1 (>90% of purity) was used as standard. The levels of aPTT in plasma were analyzed using a MLA 1000C Coagamate XM system in Haematology Laboratory, Health Sciences Centre, Winnipeg.
(§1) The levels of aPTT in plasma were analyzed using MLA 1000C Coagamate XM system in Haematology Laboratory, Health Sciences Centre, Winnipeg. For the evaluation of bleeding time, 1 mm of tail tip was removed using a razor blade. Resultant wound was gently blotted with filter paper immediately after the cut and each 30-second thereafter until bleeding stopped. Periods between cutting and no blood blotted onto filter paper were defined as bleeding time (Ishiwata S et al, 1997, 20).

[5] = Bleeding complications and side effects in rabbits; format: in vivo; conditions: HLP 0.8 mg/kg/h for four hours
Description: (§2) Influence of HLP on coagulation and haemorrhage. The levels of aPTT and microvascular bleeding time is determined in atherosclerotic rabbits receiving HLP, heparin, hirulog-1 or saline. The effects of optimized HLP treatment on coagulation and haemorrhage is also be examined in a group of uninjured rabbits on regular diet (n=10). The levels of aPTT is determined in blood withdrawn at 15 minutes after the start of the infusions using MLA Coagamate XM system in Haematology Laboratory. Microvascular bleeding time is determined by bleeding from a cut on ear at 1 minutes after the initiation of infusion as previously described (Blajchman et al, 1979). Incidence of bleeding complications in rabbits with various treatments is recorded. Autopsy is applied to every animal, including unexpected death, to examine the sign of haemorrhage in various organs and tissues.
Impact of HLP on liver, kidney and myeloid functions. Peripheral blood is withdrawn before sacrifice from ear vein of normal or atherosclerotic rabbits with and without treatments for analysing complete blood counts, serum albumin, alanine transaminase and blood urea nitrogen (analysed in Dept of Clinical Chemistry) to determine the influence of HLP on liver, kidney and myeloid functions. HLP concentrations in blood is analysed to examine the relationship between blood concentrations and possible toxic effects of HLP. […]

[6] = Tail bleeding time in rats; format: in vivo; conditions: for tail bleeding time during treatment versus control or basal levels: i.v. infusion
Description: as §1

[7] = aPTT in rabbits; format: in vivo; conditions: HLP treated rabbits
Description: as §2
Restenosis is responsible for the 30-40% long term failure rate following coronary revascularization. Thrombin inhibitors have been considered as one type of potential drug for the prevention of restenosis. […] The experiment was designed to examine the effect of HLP on restenosis of carotid arteries in atherosclerostic rabbits. Right carotid arteries of male New Zealand rabbits were subjected to air dessication. […]

[8] = system: baboon aortic SMC; test: Thrombin-induced 3H-thymidine incorporation assay; format: cell-based; conditions: thrombin 10 U/ml
Description: Baboon aortic SMCs (seed cells provided by Dr. A. W. Clowes, University of Washington, Seattle) were grown as previously described (Ishiwata S et al, 1999) and seeded in 12-well plates to sub-confluence. Sub-confluent cells were incubated with serum-free medium for 48 hours. Quiescent SMCs were stimulated with medium containing 1% fetal calf serum and 10 U/ml of thrombin in the absence and presence of HLP for 4 hours. The incubation was continued following the replacement of fresh medium supplemented with 10% serum in the absence of thrombin or its inhibitor for 14 hours. Finally, SMCs were incubated with 0.1 μCi/ml of 3H-thymidine (NEN, Boston, Mass.) in medium containing 10% of serum for 6 hours. At the end of the incubation, the cells were thoroughly washed with PBS then 5% ice-cold trichloroacetic acid, and harvested in 0.25 N NaOH (Safian R D et al, 1990). Radioactivity in aliquots of cell lysate was analyzed in scintillation counter. 3H-Thymidine incorporation was assessed by radioactivity in cell lysates following adjustment with cellular proteins in each well.

[9] = human, in vivo; cited from earlier work
[10] = system: hirulog-like peptide (HLP)
[11] = rats, 6 months after HLP 1.6 mg/kg/h for 4 hours
[12] = rats, 6 months after HLP treatment
[13] = balloon injured rats, heparin 50 U/kg/h, hirulog-1 1 mg/kg/h, HLP 1.6 mg/kg/h [HLP(1.6)], 5 minutes after start of infusion
[14] = tail, heparin 50 U/kg/h, hirulog-1 1 mg/kg/h, HLP 1.6 mg/kg/h [HLP(1.6)], 10 minutes after initiation of infusion, mean±SD, n=4

Chain of hirulog-like peptide (HLP) (chain, as listed by the source): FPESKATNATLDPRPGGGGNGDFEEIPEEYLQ

CC[C@H](C)[C@H](NC(=O)[C@H](CCC(=O)O)NC(=O)[C@H](CCC(=O)O)NC(=O)[C@H](Cc1ccccc1)NC(=O)[C@H](CC(=O)O)NC(=O)CNC(=O)[C@H](CC(N)=O)NC(=O)CNC(=O)CNC(=O)CNC(=O)CNC(=O)[C@@H]1CCCN1C(=O)[C@H](CCCNC(=N)N)NC(=O)[C@@H]1CCCN1C(=O)[C@H](CC(=O)O)NC(=O)[C@H](CC(C)C)NC(=O)[C@@H](NC(=O)[C@H](C)NC(=O)[C@H](CC(N)=O)NC(=O)[C@@H](NC(=O)[C@H](C)NC(=O)[C@H](CCCCN)NC(=O)[C@H](CO)NC(=O)[C@H](CCC(=O)O)NC(=O)[C@@H]1CCCN1C(=O)[C@@H](N)Cc1ccccc1)[C@@H](C)O)[C@@H](C)O)C(=O)N1CCC[C@H]1C(=O)N[C@@H](CCC(=O)O)C(=O)N[C@@H](CCC(=O)O)C(=O)N[C@@H](Cc1ccc(O)cc1)C(=O)N[C@@H](CC(C)C)C(=O)N[C@@H](CCC(N)=O)C(=O)O [HLP]
toxic effect in rats ([1]; previous experiments): does not cause evident toxic effect
alanine transaminase versus control group [1, 11]: No significant difference
blood urea nitrogen versus control group [1, 11]: No significant difference
liver and kidney functions [1, 12]: No significant change
haemorrhage / death from haemorrhage during infusion ([1]; rats, heparin 50 U/kg/hours, HLP 1.6-3.2 mg/kg/hours): did not cause haemorrhage
antigenicity / induction of detectable antibodies in rabbits [2]: weak antigen
Ki on the enzymatic activity of thrombin, compared with hirulog-1 [3]: two orders of magnitude greater; also recorded: two orders of magnitude higher
aPTT (second) ([4]; HLP 3.2 mg/kg/h [HLP(3.2)], 5 minutes after start of infusion): 19.80 ± 1.65++xx second
aPTT (second) [4, 13]: 20.80 ± 3.24++xx second
aPTT / coagulation activity during treatment versus control or basal levels ([4]; rats, i.v. infusion): close to that infused with saline; also recorded: did not cause haemorrhage, the elongation of aPTT; also recorded: not significantly different from vehicle controls; also recorded: did not significantly differ; also recorded: did not prolong aPTT or bleeding time; also recorded: did not significantly alter coagulation activity
HLP treated rabbits that suffered from bleeding complications [5]: None
tail bleeding time 6 months after treatment versus controls [6, 12]: No significant change; also recorded: No significant difference
tail bleeding time during treatment versus control or basal levels ([6]; rats): did not cause haemorrhage, the elongation of aPTT or bleeding time; also recorded: not significantly different from vehicle controls; also recorded: did not prolong aPTT or bleeding time
Bleeding time (min) ([6]; tail, HLP 3.2 mg/kg/h [HLP(3.2)], 10 minutes after initiation of infusion, mean±SD, n=4): 16.50 ± 1.58+x min
Bleeding time (min) [6, 14]: 16.37 ± 1.55+x min
aPTT in rabbits versus saline controls [7]: did not significantly change; also recorded: not significantly prolonged

CC[C@H](C)[C@H](NC(=O)[C@H](CCC(=O)O)NC(=O)[C@H](CCC(=O)O)NC(=O)[C@H](Cc1ccccc1)NC(=O)[C@H](CC(=O)O)NC(=O)CNC(=O)[C@H](CC(N)=O)NC(=O)CNC(=O)CNC(=O)CNC(=O)CNC(=O)[C@@H]1CCCN1C(=O)[C@H](CCCNC(=N)N)NC(=O)[C@@H]1CCCN1C(=O)[C@H](N)Cc1ccccc1)C(=O)N1CCC[C@H]1C(=O)N[C@@H](CCC(=O)O)C(=O)N[C@@H](CCC(=O)O)C(=O)N[C@@H](Cc1ccc(O)cc1)C(=O)N[C@@H](CC(C)C)C(=O)O [Hirulog-1, reference compound]
aPTT raised over basal levels ([4]; 1 minute after injection of 1 mg/kg, uninjured and balloon injured rats): 3- to 4 fold
aPTT (second) [4, 13]: 52.38 ± 2.84**+ second
prolongation of aPTT during infusion ([4]; heparin 50 U/kg/h, hirulog-1 1 mg/kg/h, 5 minutes after start of infusion): 2- to 3 fold
aPTT / coagulation activity during treatment versus control or basal levels ([4]; rats, i.v. infusion): significantly elongated
time after treatment beyond which aPTT was normalized ([4]; single injection of 1 mg/kg): > 30 min
aPTT versus basal levels ([4]; within 15 minutes after single injection of 1 mg/kg): higher than corresponding basal levels
tail bleeding time during treatment versus control or basal levels ([6]; rats): significantly prolonged; also recorded: significantly elongated
Bleeding time [6, 14]: 21.88 ± 1.55 min

Heparin [reference compound]
aPTT / coagulation activity during treatment versus control or basal levels ([4]; rat, in vivo, iv): greatly increased

Thrombin
increase of 3H-thymidine incorporation [8]: 43%

hirudin
frequency of major bleeding [9]: 6%-7%
incidence of major bleeding complications at non-cranial sites [9]: 7%

α-thrombin
thrombin-induced 3H-thymidine incorporation in baboon aortic SMC [10]: Treatment with 20 µM HLP significantly reduced thrombin-induced increase in 3H-thymidine incorporation in SMC (p<0.05) compared to cells treated with thrombin only
